Experimental data as given in US12514907B2, “Treatment of exercise-induced hypoglycemia in type 1 and insulin using type 2 diabetes” (Xeris Pharmaceuticals, Inc., priority 2017, dated 2026).

Assays:
patients with T1D [1] = test: CGM metrics after exercise session, randomized 4-period crossover trial of mini-dose glucagon in T1D; format: in vivo, human; details: no statistically significant differences
From the text: Visit Schedule. (1) Screening/Baseline Visit. This visit will be used to assess eligibility and can include determination of VO2 max for fitness evaluation and for the determination of exercise intensity for the study. (2) Randomized Crossover Trial. Each participant will undergo four aerobic exercise sessions (in random order), with different strategies for glucose regulation that include: (i) Control: Fasted exercise, no basal insulin reduction; (ii) Strategy 1: Fasted exercise, basal insulin reduction only (50% reduction in basal rate five minutes before exercise, for the duration of the exercise); (iii) Strategy 2: Fasted exercise, no basal adjustment+pre-exercise glucose tabs (buccal route-40 grams in total); (iv) Strategy 3: Fasted exercise, no basal adjustment+pre-exercise mini-dose glucagon (sc). In all 4 sessions, aerobic exercise will be performed in the fasted state (before a standardized meal) for 45 minutes at ˜50-55% of the participant's predetermined aerobic capacity. The strategies for select sessions will be blinded. The day before each exercise session participants will: Insert new insulin infusion set into abdomen or upper buttock (ensure not in exercising limb); For CGM users, insert a new CGM sensor; For non-CGM users, come into clinic to have a CGM sensor inserted to use with a blinded receiver. For participants using the blinded CGM, the sensor will be removed at 12:00 PM the next day at home (˜24 hours after the end of exercise). The participant will bring the device to the next visit or mail it back to the clinic. Participants will receive a phone call the day after each exercise session to elicit any adverse events. For CGM users, the CGM data will be downloaded at each visit and arrangements made to transmit the data following the last exercise session. The participant's insulin pump will be downloaded at each visit and arrangements made to transmit the data following the last exercise session. Subjects aged 18-<65 years with a duration of T1D ≥2 years, a random C-peptide <0.6 ng/ml, that use CSII (Insulin pump) for at least 6 months, with no plans to discontinue pump use during the study and exercise regularly, ≥30 minutes moderate or more vigorous aerobic activity X≥3 times/week were randomized in a 4-period crossover trial. The control was no basal insulin adjustment, no carbs unless glucose <70 mg/dL (then 20 g dextrose given). Basal Rate Reduction: Basal rate decreased by 50% 5 minutes before start of exercise (basal rate returned to usual rate at end of exercise). Glucose Tabs: Dextrose tabs orally (20 grams) 5 min before start of exercise and 20 grams again at 30 min after start. Mini-Dose Glucagon: Glucagon (150 μg) 5 min before start of exercise (SQ-abdomen). Exercise consisted of moderate intensity aerobic activity (treadmill brisk uphill walking) performed at 50-55% VO2 max for 45 min. Performed in fasted state. Same workload performed at each exercise session. Exercise was terminated if: glucose <70 mg/dL (participant treated for hypo) and/or participant experienced dizziness, pallor and other symptoms of poor perfusion and/or exercise intolerance. Following each exercise session, participants rested for 30 min and then consumed a standardized meal. Meal contained 44-50 grams of carbohydrate (55% of calories from carbohydrate, 20% from protein, and 25% from fat). Insulin is administered as pump bolus 5 min before standardized meal using participants own carbohydrate ratio with correction only if glucose ≥270 mg/dL.

patients with T1D [2] = test: Plasma glucose (YSI analyzer) during exercise/early recovery and post meal, randomized 4-period crossover trial; format: in vivo, human
From the text: Visit Schedule. (1) Screening/Baseline Visit. This visit will be used to assess eligibility and can include determination of VO2 max for fitness evaluation and for the determination of exercise intensity for the study. (2) Randomized Crossover Trial. Each participant will undergo four aerobic exercise sessions (in random order), with different strategies for glucose regulation that include: (i) Control: Fasted exercise, no basal insulin reduction; (ii) Strategy 1: Fasted exercise, basal insulin reduction only (50% reduction in basal rate five minutes before exercise, for the duration of the exercise); (iii) Strategy 2: Fasted exercise, no basal adjustment+pre-exercise glucose tabs (buccal route-40 grams in total); (iv) Strategy 3: Fasted exercise, no basal adjustment+pre-exercise mini-dose glucagon (sc). In all 4 sessions, aerobic exercise will be performed in the fasted state (before a standardized meal) for 45 minutes at ˜50-55% of the participant's predetermined aerobic capacity. The strategies for select sessions will be blinded. Sample collection. Blood samples collected through a venous catheter with plasma glucose measured by an YSI analyzer. Blood samples will be collected at: Baseline (at −30, −15, −5, 0 min), During exercise (at 5, 10, 15, 25, 35, 45 min), In recovery post exercise (at 50, 55, 60, 75 min), Regularly following a standardized mixed meal for 90 minutes (at 90, 105, 120, 135, and 165 min). Plasma from the collected blood samples will be used to measure the following hormones, proinflammatory markers and metabolites at baseline, during exercise, in recovery post exercise, and regularly following the standardized mixed meal: Insulin, Glucagon, Cortisol, Growth hormone, Catecholamines (epinephrine and norepinephrine), Interleukin-6, tumor necrosis factor-α, Nonesterified fatty acids, β-hydroxybutyrate, and/or Lactate. […]

[3] = late recovery period (standard meal to noon the day after exercise session), mean
[4] = late recovery period (standard meal to noon the day after exercise session), median
[5] = overnight (midnight to 6 am the day after exercise session), mean
[6] = overnight (midnight to 6 am the day after exercise session), median

## glucagon [MDG]
Patients with T1D [1]; [3]
  % of time 70-180 mg/dL-mean: 66%
  % of time <70 mg/dl-mean: 7%
Patients with T1D [1]; [4]
  Coefficient of Variation-median: 34%
  Mean Glucose, mg/dL-median: 150 mg/dL
  Nadir Glucose, mg/dL-median: 51 mg/dL
Patients with T1D [1]; [5]
  % of time 70-180 mg/dl-mean: 59%
  % of time <70 mg/dl-mean: 4%
Patients with T1D [1]; [6]
  Coefficient of Variation-median: 21%
  Mean Glucose, mg/dl-median: 156 mg/dL
  Nadir Glucose, mg/dL-median: 91 mg/dL
Patients with T1D [1]; overnight (midnight to 6 am the day after exercise session)
  Occurrence of Hypoglycemia (<70 mg/dL)-%: 23%
Patients with T1D [2]; compared with ingestion of carbohydrate
  post-intervention hyperglycemia: less post-intervention hyperglycemia than ingestion of carbohydrate
Patients with T1D [2]; compared with insulin reduction
  reducing exercise-induced hypoglycemia: more effective than insulin reduction
Patients with T1D [2]; given just before aerobic exercise, people with type 1 diabetes
  frequency of a drop in glucose concentration: reduces the frequency of a drop in glucose concentration
